Laboratory results published in patent US20220218732A1, “Selective Inhibitors Of Protein Arginine Methyltransferase 5 (PRMT5)” (Prelude Therapeutics, Incorporated, priority 2019, published 2022).
Where a name gives a salt, the structure may show the parent alone. Read-outs that look alike come from different tables or passages of the source. Values belong to the compound of their own block, whether it stands above or below them.

Key:
[1] = Rat non-crossover PK study of Example 92; format: in vivo
Description: In a rat (SD, male, non-fasted) non-crossover PK study, Example 92 was dosed at 1 mg/kg (DMA: 20% HPBCD=5:95, solution) via i.v. administration (N=2) and 1 mg/kg (0.5% Na CMC+0.5% Tween80, solution) via oral gauge (p.o.) (N=2).

PRMT5/MEP50 complex = PRMT5/MEP50 complex (Homo sapiens, UniProt O14744); assay: Biochemical assay: PRMT5/MEP50 methylation of histone H2A with 3H-SAM, filter plate scintillation
Description: Compounds were solubilized, and 3-fold diluted in 100% DMSO. […] Standard reactions were performed in a total volume of 50 μl in assay buffer, with histone H2A (5 μM final) as substrate. To this was added the PRMT5/MEP50 complex diluted to provide a final assay concentration of 5 nM and the compounds were allowed to preincubate for 15 to 20 minutes at room temperature. The reaction was initiated by adding S-[3H-methyl]-adenosyl-L-methionine (PerkinElmer) to final concentration of 1 μM. Following a 60 minutes incubation at 30° C., the reaction was stopped by adding 100 μL of 20% TCA. Each reaction was spotted onto filter plate (MultiScreen FB Filter Plate, Millipore), and washed 5 times with PBS buffer, Scintillation fluid was added to the filter plate and read in a scintillation counter. IC50 values were determined by fitting the data to the standard 4 parameters with Hill Slope using GraphPad Prism software.

[2] = Rat non-crossover cassette PK study of Example 36; format: in vivo; conditions: rat SD male non-fasted, 2 mg/kg p.o.
Description: In a rat (SD, male, non-fasted) non-crossover cassette PK study, Example 36 was dosed at 0.25 mg/kg via i.v. administration (N=3) and 2 mg/kg via oral gauge (p.o.) (N=3) with other 3 compounds.

[3] = tested on: Symmetric Di-Methyl Arginine (sDMA) marks in Granta-519 cell line; assay: Cellular assay: Western blot of sDMA (SmD3me2s) and H3R8me2s marks in Granta cells, 3 days, IC50; format: cell-based; conditions: Homo sapiens, 72 h, Table 7
[4] = tested on: Type II Collagen-Induced Arthritis (CIA) in female Lewis rats; assay: Rat type II collagen-induced arthritis (CIA) model; format: in vivo; conditions: 15 mg/kg PO QD
Description: Female Lewis rats were injected intradermally/subcutaneously (ID/SC) with porcine type II collagen to induce arthritis on Study Days 0 & 7. Rats were then dosed once daily (QD) on Study Days 0-24 (developing) or Days 6-24 (semi-established) by the oral (PO) route with Example 92 (15 mg/kg) or vehicle (0.5% Na CMC+0.5% Tween80, suspension). Rats were euthanized for necropsy on Study Day 25. Efficacy evaluation was based daily ankle diameter caliper measurements, terminal hind paw weights, and histopathology of ankles and knees.

[5] = developing mode (Days 0-24), P<0.001

PRMT5/MEP50 complex, sequence (O14744 whole entry, species assumed): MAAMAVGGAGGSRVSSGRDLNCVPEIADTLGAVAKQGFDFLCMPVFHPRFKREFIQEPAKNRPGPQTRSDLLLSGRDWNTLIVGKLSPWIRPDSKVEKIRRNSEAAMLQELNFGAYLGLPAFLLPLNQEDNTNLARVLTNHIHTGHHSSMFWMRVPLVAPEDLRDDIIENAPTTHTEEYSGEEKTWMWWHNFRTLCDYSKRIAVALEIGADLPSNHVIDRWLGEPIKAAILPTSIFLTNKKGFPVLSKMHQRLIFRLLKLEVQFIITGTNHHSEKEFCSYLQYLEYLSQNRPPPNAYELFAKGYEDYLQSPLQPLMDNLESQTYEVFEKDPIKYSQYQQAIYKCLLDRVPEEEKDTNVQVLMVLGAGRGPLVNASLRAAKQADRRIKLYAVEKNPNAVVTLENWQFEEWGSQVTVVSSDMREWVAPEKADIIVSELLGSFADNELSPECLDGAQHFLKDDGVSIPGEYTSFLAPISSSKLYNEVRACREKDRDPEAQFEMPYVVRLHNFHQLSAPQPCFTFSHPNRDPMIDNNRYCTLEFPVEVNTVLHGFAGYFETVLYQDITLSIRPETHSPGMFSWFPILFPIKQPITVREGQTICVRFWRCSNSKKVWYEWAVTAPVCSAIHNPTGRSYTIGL
PRMT5/MEP50 complex, sequence (Q9BQA1 whole entry partner, species assumed): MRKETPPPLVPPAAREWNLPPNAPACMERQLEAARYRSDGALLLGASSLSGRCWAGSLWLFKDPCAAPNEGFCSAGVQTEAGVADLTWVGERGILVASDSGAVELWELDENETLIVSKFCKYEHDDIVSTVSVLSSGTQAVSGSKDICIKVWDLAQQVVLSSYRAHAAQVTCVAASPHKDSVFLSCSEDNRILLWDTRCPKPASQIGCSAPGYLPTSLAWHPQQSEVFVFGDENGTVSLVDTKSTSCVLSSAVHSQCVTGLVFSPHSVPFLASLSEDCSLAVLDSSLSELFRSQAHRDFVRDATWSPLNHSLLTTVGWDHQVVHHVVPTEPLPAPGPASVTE

IC50 [3]: 97 nM
IC50 (PRMT5/MEP50 complex; Table 7, histone H2A substrate, 5 nM enzyme, read-out: PRMT5/MEP50 IC50): 29.1 nM
SMILES: CCO/N=c1\nc[nH]c2c1ccn2[C@@H]1OC([C@](C)(O)c2ccc(Cl)cc2)[C@@H](O)[C@H]1O (stereo partly drawn) [Example 83, 7-((2R,3R,4S)-5-((R)-1-(4-chlorophenyl)-1-hydroxyethyl)-3,4-dihydroxytetrahydrofuran-2-yl)-1,7-dihydro-4H-pyrrolo[2,3-d]pyrimidin-4-one O-ethyl oxime]

average dose normalized AUC0-inf ([1]; rat SD male non-fasted, 1 mg/kg p.o.): 2184 ng·kg·h/mL/mg
SMILES: CO/N=c1\[nH]cnc2c1ncn2[C@@H]1O[C@H]([C@](C)(O)c2ccc(Cl)c(Cl)c2)[C@@H](O)[C@H]1O [Example 92, (2S,3S,4R,5R)-2-[(1R)-1-(3,4-dichlorophenyl)-1-hydroxy-ethyl]-5-[(6Z)-6-methoxyimino-1H-purin-9-yl]tetrahydrofuran-3,4-diol]
histopathology parameters in ankles and knees ([4]; both modes, versus vehicle controls): significantly inhibited all histopathology parameters
reduction in ankle diameter [4, 5]: 63%
reduction in hind paw weight [4, 5]: 67%
reduction in hind paw weight ([4]; semi-established mode (Days 6-24), P<0.01): 51%
reduction in ankle diameter ([4]; semi-established mode (Days 6-24), P<0.05): 34%

The next lines start with the compound.

SMILES: C[C@@](O)(c1ccc(Cl)c(Cl)c1)[C@H]1O[C@@H](n2cnc3c(N)ncnc32)[C@H](O)[C@@H]1O [Example 1-C, (2R,3R,4S,5S)-2-(6-amino-9H-purin-9-yl)-5-((R)-1-(3,4-dichlorophenyl)-1-hydroxyethyl)tetrahydrofuran-3,4-diol]
metabolite in blood samples ([1]; rat, after dosing of Example 92): detected
average of AUC0-int of metabolite ([1]; rat, metabolite after dosing of Example 92): 284 ng·kg·h/mL/mg

SMILES: C[C@@H](c1ccc(Cl)cc1)[C@H]1O[C@@H](n2ccc3c(N)ncnc32)[C@H](O)[C@@H]1O [Example 5-C, (2R,3R,4S,5R)-2-(4-amino-7H-pyrrolo[2,3-d]pyrimidin-7-yl)-5-((S)-1-(4-chlorophenyl)ethyl)tetrahydrofuran-3,4-diol hydrochloride]
IC50 (PRMT5/MEP50 complex; Table 9, compounds of Formula V and Formula VI, read-out: PRTMT5/MEP50 IC50): 37 nM

SMILES: CO/N=c1/nc[nH]c2c1ccn2[C@@H]1O[C@H]([C@H](O)c2ccc(Cl)cc2)[C@@H](O)[C@H]1O [Example 36, (2R,3S,4R,5R)-2-[(R)-(4-chlorophenyl)-hydroxy-methyl]-5-(-4-methoxyimino-1H-pyrrolo[2,3-d]pyrimidin-7-yl]tetrahydrofuran-3,4-diol]
average dose normalized AUC [2]: 1738 ng·kg·h/mL/mg

SMILES: CO/N=c1\nc[nH]c2c1ccn2[C@@H]1O[C@H]([C@H](O)c2ccc(Cl)c(Cl)c2)[C@@H](O)[C@H]1O [Example 69, 7-((2R,3R,4S,5R)-5-((R)-(3,4-dichlorophenyl)(hydroxy)methyl)-3,4-dihydroxytetrahydrofuran-2-yl)-1,7-dihydro-4H-pyrrolo[2,3-d]pyrimidin-4-one O-methyl oxime hydrochloride]
IC50 [3]: 28 nM
